Test results from patent US11541041B1, “Compounds that interact with the Ras superfamily for the treatment of cancers, inflammatory diseases, Rasopathies, and fibrotic disease” (Shy Therapeutics LLC, priority 2017, dated 2023).

The molecules below were run against Rho-A (Homo sapiens (Human), UniProt P61586) (assay: Rac and Rho inhibition assay). Settings: read-out: Rho-A % Inh.
Rho-A, sequence (P61586 whole entry): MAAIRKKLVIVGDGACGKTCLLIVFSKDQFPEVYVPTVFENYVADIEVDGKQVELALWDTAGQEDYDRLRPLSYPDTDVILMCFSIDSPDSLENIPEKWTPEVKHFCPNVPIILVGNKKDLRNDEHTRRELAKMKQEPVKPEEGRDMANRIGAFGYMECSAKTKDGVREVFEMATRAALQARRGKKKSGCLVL
Assay type: binding
Description: (§1) Buffer-I: • 50 mM Tris, pH 7.5 • 150 mM NaCl (optional) • 1 mM MgCl2 • 1 mM DTT. • KRas G12D mutant protein was expressed as a His-tagged protein. Purified His-KRas G12D protein was diluted in buffer-I to a final concentration of 3-10 μg/ml. • 200 μl of the diluted His-KRas G12D protein was added to a nickel coated 96 well plate and incubated overnight at 4° C. • The next day, wells were washed 3× in 200 μl of Buffer-I. • Then 200 μl of Buffer-I were added to each well in the presence of 1% DMSO. • Tested compounds were added to the protein-coated wells at a concentration of 20 μM, and incubated for 3 hours at room temperature. While performing IC50 measurements a serial dilution of all tested concentrations was prepared.
(§2) Then 22 μl of Cy3-GTP or Cy5-GTP was added to each well. The labeled GTP was incubated for 45 min. at room temperature. • Following GTP incubation, wells were washed 3× in Buffer-I, and 200 μl of Buffer-I were added to each well. • Following washes, the amount of bound labeled-GTP was measured with an Eppendorf AF2200 plate reader.
(§3) By substituting KRas G12D mutant protein with either Rac-1 or Rho-A under the assay conditions described in Example 5, Rac-1 and Rho-A inhibition, respectively, were each determined.
Work on `Cc1c(C(=O)N2CCN(c3ccccc3)CC2)sc2c(O)nc(-c3ccccn3)nc12` yielded an inhibition at 20 µM of 76 to 100%.
For `Oc1nc(-c2ccccn2)nc2c(-c3cnc4ccccc4c3)csc12`, the inhibition at 20 µM was 51 to 75%.
With `COc1ccc(N2CCN(C(=O)c3csc4c(O)cc(-c5ccccn5)cc34)CC2)cc1O` the inhibition at 20 µM was 76 to 100%.
Molecule `COc1ccc(CCNC(=O)c2csc3nc(-c4ccccn4)nc(N4CCSCC4)c23)cn1` [drawing 3751] has an inhibition at 20 µM of 1 to 25%.
`O=C(c1csc2c(O)nc(-c3ccccn3)nc12)N1CCNC(c2ccc(O)cc2)C1` (stereo not shown) gave an inhibition at 20 µM of 76 to 100%.
Work on `CN(C)Cc1ccc(-c2csc3c(O)nc(-c4ccccn4)nc23)cc1F` yielded an inhibition at 20 µM of 76 to 100%.
In the case of `OC[C@H]1O[C@@H](c2csc3c2N=C(c2ccccn2)NC3O)[C@H](O)[C@@H]1O` (stereo partly shown) [drawing 3871], the inhibition at 20 µM is reported as 51 to 75%.
Molecule `Cc1sc2c(O)nc(-c3ccccn3)nc2c1C(=O)N1CCN(Cc2cccc(O)c2)CC1` has an inhibition at 20 µM of 76 to 100%.
With `Cc1cc2nc(-c3ccccn3)nc(O)c2s1` [drawing 3817] the inhibition at 20 µM was 76 to 100%.

Each molecule was assayed against Rac-1 (Homo sapiens (Human), UniProt P63000) (assay: Rac and Rho inhibition assay). Settings: read-out: Rac-1 % Inh.
Assay type: binding
Description: as §1, §2, §3
For `COCc1ccc(-c2csc3c(O)nc(-c4ccccn4)nc23)cc1F`, the inhibition at 20 µM was 76 to 100%.
`O=C(c1csc2c(O)nc(-c3ccccn3)nc12)N1CCNC(c2cn[nH]c2)C1` (stereo not shown) gave an inhibition at 20 µM of 76 to 100%.
Molecule `CC(C)COc1ccc(-c2csc3c(O)nc(-c4ccccn4)nc23)cn1` has an inhibition at 20 µM of 76 to 100%.
Molecule `CCC(C)c1csc2c(OC)nc(-c3ccccn3)nc12` (stereo not shown) has an inhibition at 20 µM of 76 to 100%.
`Oc1nc(-c2ccccn2)nc2c(-c3cnc4ccccc4c3)csc12` was tested, and the inhibition at 20 µM was 51 to 75%.
`COc1ccc(N2CCN(C(=O)c3csc4c(O)cc(-c5ccccn5)cc34)CC2)cc1O` gave an inhibition at 20 µM of 76 to 100%.
In the case of `COc1ccc(CCNC(=O)c2csc3nc(-c4ccccn4)nc(N4CCSCC4)c23)cn1` [drawing 3751], the inhibition at 20 µM is reported as 25 to 50%.
Molecule `O=C(c1csc2c(O)nc(-c3ccccn3)nc12)N1CCNC(c2ccc(O)cc2)C1` (stereo not shown) has an inhibition at 20 µM of 76 to 100%.
Work on `CN(C)Cc1ccc(-c2csc3c(O)nc(-c4ccccn4)nc23)cc1F` yielded an inhibition at 20 µM of 76 to 100%.
With `OC[C@H]1O[C@@H](c2csc3c2N=C(c2ccccn2)NC3O)[C@H](O)[C@@H]1O` (stereo partly shown) [drawing 3871] the inhibition at 20 µM was 51 to 75%.
For `Oc1nc(-c2ccccn2)nc2c(-c3cncc(C(F)(F)F)c3)csc12`, the inhibition at 20 µM was 1 to 25%.
`Cc1sc2c(O)nc(-c3ccccn3)nc2c1C(=O)N1CCN(Cc2cccc(O)c2)CC1` showed an inhibition at 20 µM of 76 to 100%.
`Cc1cc2nc(-c3ccccn3)nc(O)c2s1` [drawing 3817] gave an inhibition at 20 µM of 76 to 100%.

What follows are molecules tested on IL6 (assay: Mouse IL6 quantification assay (LPS-stimulated RAW 264.7, ELISA)). Settings: 30 μM; RAW 264.7 murine leukemia virus transformed macrophage cell lines, LPS stimulation.
Assay type: cell-based
Description: Cell lines: Abelson murine leukemia virus transformed macrophage cell line RAW 264.7 was purchased from ATCC and grown in complete DMEM-High Glucose medium supplemented with penicillin (100 U/mL), streptomycin (100 μg/mL), and 10% heat-inactivated FBS at 37° C. in a humidified incubator with 5% CO2.
Method: Cells were plated at 40000 cells/well density in a 96-wells plate. After a 3-hour incubation, macrophages were starved with DMEM plus 0.5% FBS o/n. The next day the small molecules to be tested were added to the cells in the final concentration of 30 μM (with 0.3% DMSO) 3 hours prior to LPS stimulation (100 ng/ml). After LPS stimulation cells were incubated at 37° C. for 16h. At the end of the incubation period, culture media were collected and production of LPS-induced TNFα and IL6 cytokine was measured using ELISA detection kits.
Sandwich ELISA: The ELISA Immunoassays Quantikine Mouse TNF-alpha (catalog number MTA00B) and IL6 (catalog number M6000B) were purchased from R&D Systems Inc., Minneapolis, Minn. These 4.5 hours solid phase ELISAs were used to measure mouse TNFα or IL6 levels in macrophages culture supernatants. Assays were executed according to the manufacturer specifications.
With `Cc1sc2c(O)nc(-c3ccccn3)nc2c1Br` [drawing 2319] the “IL-6 % Inhibition at 30 μM” value was “A (A = 1-25% inhibition)”.

Same assay, conditions: Mus musculus, RAW264.7, 30 μM; RAW 264.7 murine leukemia virus transformed macrophage cell lines, LPS stimulation; read-out: IL-6 % Inhibition at 30 μM
`Cc1ccc(CC(=O)Nc2nnc(-c3ccccn3)[nH]2)cc1` gave an inhibition at 30 µM of 51 to 75%.

Each molecule was assayed against KRas G12D/Q61H double mutant (Homo sapiens (Human), UniProt P01116, G12D/Q61H) (assay: Ras GTP binding domain inhibition assay). Settings: 20 μM compound; read-out: % Inhibition at 20 μM, KRas G12D Q61H.
KRas G12D/Q61H double mutant, sequence (P01116-2 other isoform, or with tags, fused parts or gaps G12D/Q61H): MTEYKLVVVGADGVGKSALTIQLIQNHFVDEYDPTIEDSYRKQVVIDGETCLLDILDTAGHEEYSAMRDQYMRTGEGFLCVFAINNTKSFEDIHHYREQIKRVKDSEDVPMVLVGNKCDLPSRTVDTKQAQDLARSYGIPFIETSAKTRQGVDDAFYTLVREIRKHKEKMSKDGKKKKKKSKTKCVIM
Description: as §1, §2
By substituting KRas G12D mutant protein with KRas G12C mutant, KRas wild type, KRas Q61H mutant, KRas G12D/Q61H double mutant or KRas G12C/Q61H double mutant under the assay conditions described above, KRas G12C mutant KRas wild type, KRas Q61H mutant, KRas G12D/Q61H double mutant and KRas G12C/Q61H double mutant inhibition, respectively, were each determined.
Work on `C=CCc1cc(COC)ccc1OCC(=O)NCc1ccc(OC)cc1` yielded an inhibition at 20 µM of 25 to 50%.
Molecule `O=C(c1ccc(S(=O)(=O)N2CCOCC2)cc1)N(Cc1ccccc1)Cc1cccs1` has an inhibition at 20 µM of 1 to 25%.
With `CCOC(=O)c1cnc(N(C2CC2)S(=O)(=O)c2ccc(OC)c(C)c2)s1` the inhibition at 20 µM was 1 to 25%.
`CCC1=CC2C(=O)NC(c3ccccn3)=NC2S1` (stereo not shown) was tested, and the inhibition at 20 µM was 25 to 50%.
`CCOc1ccc(C(F)(F)F)cc1NCc1ncc(C)o1` showed an inhibition at 20 µM of 25 to 50%.
With `C=C(CNc1nc(-c2ccccn2)nc2scc(-c3ccccc3)c12)NC` the inhibition at 20 µM was 25 to 50%.
`O=c1[nH]c(-c2cncc(OCC(F)F)c2)nc2cc(F)c(F)cc12` gave an inhibition at 20 µM of 25 to 50%.
With `CN(C(=O)c1ccc(COc2ccccc2F)o1)c1cccs1` the inhibition at 20 µM was 25 to 50%.
With `O=C1C2C=CC=CC2OC(O)C1Cc1cc(Cl)c2cccnc2c1O` (stereo not shown) the inhibition at 20 µM was 25 to 50%.
`CCN(Cc1cnc(S(=O)(=O)N(C)C)o1)c1ccccc1` showed an inhibition at 20 µM of 25 to 50%.
Work on `FC(F)(F)c1cccc(N2CCN(c3cc(Cl)nc4ncnn34)CC2)c1` yielded an inhibition at 20 µM of 25 to 50%.

Same assay, conditions: 20 μM; read-out: KRas G12D Q61H % Inh.
In the case of `O=c1nc(-c2ccccn2)[nH]c2ccsc12`, the inhibition at 20 µM is reported as 51 to 75%.
With `O=[N+]([O-])c1cc(C(F)(F)F)ccc1Sc1nc2c(c(C(F)(F)F)n1)CCCC2` the inhibition at 20 µM was 51 to 75%.
`CCOC(=O)c1ccnc(N2CCC(C)CC2c2ccc(CC)o2)c1[N+](=O)[O-]` (stereo not shown) was tested, and the inhibition at 20 µM was 51 to 75%.

Same assay, conditions: at 20 μM; read-out: KRas G12D Q61H % Inh.
`COc1ccc(N2CCN(C(=O)c3csc4c(O)cc(-c5ccccn5)cc34)CC2)cc1O` was tested, and the inhibition at 20 µM was 1 to 25%.
`COc1ccc(CCNC(=O)c2csc3nc(-c4ccccn4)nc(N4CCSCC4)c23)cn1` [drawing 3751] gave an inhibition at 20 µM of 25 to 50%.
